Assay results from patent US8735538B1, “Use of methanobactin” (priority 2006, dated 2014).
Where two headings read alike, the source gives them in different places.

Tests used:
[1] = ITC, metal binding to mb: Ag(I); conditions: Ag(I) column
Experimental: (§1) FIG. 14. Binding isotherm of 3.2 mM HgCl2 (A), HAuCl4 (B), AgNO3 (C) NiCl2 (D), ZnCl2 (E) or FeCl3 (F) into 400 μM mb (cell) aqueous solution at 25° C. Binding isotherm of 1.6 mM HAuCl4 (B). The curve fittings for two-site binding algorithm were used.
(§2) FIG. 15. Binding isotherm of 3.2 mM CdCl2 (A), CoCl2(B), FeCl3 (C), or MnCl2(D) into […] mb aqueous solution at 25° C. Curve fittings for one-site binding algorithm (B, D) or two-site binding algorithm (A, C) were used.
(§3) ITC was performed with following modifications from the previously described procedure (Choi et al., 2006). First, concentrations of the titrant and cell solutions were raised to 3.2 mM and 0.4 mM, respectively. Second, the interval between titrant injections were decreased to 600 s and the stirring rate decreased to 380 rpm.

[2] = ITC, metal binding to mb: Au(III); conditions: column headed Au(II)
Experimental: as §1, §2, §3

[3] = ITC, metal binding to mb: Hg(II); conditions: Hg(II) column
Experimental: as §1, §2, §3

[4] = ITC, metal binding to mb: Pb(II); conditions: Pb(II) column, one-site binding model
Experimental: as §1, §2, §3

[5] = ITC, metal binding to mb: Cd(II); conditions: Cd(II) column
Experimental: as §1, §2, §3

[6] = ITC, metal binding to mb: Co(II); conditions: Co(II) column, one-site fit, 25° C.
Experimental: as §1, §2, §3

[7] = ITC, metal binding to mb: Fe(III); conditions: Fe(III) column
Experimental: as §1, §2, §3

[8] = ITC, metal binding to mb: Mn(II); conditions: Mn(II) column, one-site fit, 25° C.
Experimental: as §1, §2, §3

[9] = ITC, metal binding to mb: Ni(II); conditions: Ni(II) column
Experimental: as §1, §2, §3

[10] = ITC, metal binding to mb: Zn(II); conditions: Zn(II) column
Experimental: as §1, §2, §3

[11] = Initial screening by UV-visible absorption spectroscopy: Ag(I); format: binding; conditions: in the absence of Cu(II) or Cu(I)
Experimental: (§4) Metal titration experiments were determined by addition of 100 μM, 1 mM, or 10 mM solutions of AgNO3, HAuCl4, CdCl2, CoCl2, CrO3, CuSO4, FeCl3, HgCl2, MgCl2, MnCl2, NiCl2, Pb(NO3)2, UO2(NO3)2, or ZnSO4 to 50 μM methanobactin dissolved in H2O, pH 6.8 as previously described for Cu(II) or Cu(I) titrations (Choi et al., 2006) unless otherwise stated. Glassware was soaked in 0.1 N HNO3 for 12 hours then rinsed with milliQ H2O. For the metal replacement experiments, 50 μM aqueous mb solutions were preloaded with equimolar of AgNO3, HAuCl4, CaCl2, CdCl2, CoCl2, CrO3, CuSO4, FeCl3, HgCl2, MgCl2, MnCl2, NiCl2, Pb(NO3)2, UO2(NO3)2, or ZnSO4, incubated for 10 minutes followed by the addition of equimolar CuSO4 then monitored via UV-visible absorption spectroscopy every 30 seconds for 0.5-120 minutes. Between scans the samples were stored in the dark to avoid photodegradation (Choi et al., 2005).
(§5) UV-visible absorption, florescence spectra, circular dichroism (CD), and metal determinations via inductively coupled plasma atomic emission-mass spectroscopy (ICP-MS) were determined as previously described (Choi et al., 2003; Choi et al., 2006). In contrast to a previous report (Choi et al., 2006), the base line was used as a reference point of 0 instead of isosbestic point e for the comparison of Δεs.

[12] = Initial screening by UV-visible absorption spectroscopy: Au(III); format: binding; conditions: in the absence of Cu(II) or Cu(I)
Experimental: as §4, §5

[13] = Initial screening by UV-visible absorption spectroscopy: Cd(II); format: binding; conditions: in the absence of Cu(II) or Cu(I)
Experimental: as §4, §5

[14] = Initial screening by UV-visible absorption spectroscopy: Co(II); format: binding; conditions: in the absence of Cu(II) or Cu(I)
Experimental: as §4, §5

[15] = Initial screening by UV-visible absorption spectroscopy: Fe(III); format: binding; conditions: in the absence of Cu(II) or Cu(I)
Experimental: as §4, §5

[16] = Initial screening by UV-visible absorption spectroscopy: Hg(II); format: binding; conditions: in the absence of Cu(II) or Cu(I)
Experimental: as §4, §5

[17] = Initial screening by UV-visible absorption spectroscopy: Mn(II); format: binding; conditions: in the absence of Cu(II) or Cu(I)
Experimental: as §4, §5

[18] = Initial screening by UV-visible absorption spectroscopy: Ni(II); format: binding; conditions: in the absence of Cu(II) or Cu(I)
Experimental: as §4, §5

[19] = Initial screening by UV-visible absorption spectroscopy: Pb(II); format: binding; conditions: in the absence of Cu(II) or Cu(I)
Experimental: as §4, §5

[20] = Initial screening by UV-visible absorption spectroscopy: U(VI); format: binding; conditions: in the absence of Cu(II) or Cu(I)
Experimental: as §4, §5

[21] = Initial screening by UV-visible absorption spectroscopy: Zn(II); format: binding; conditions: in the absence of Cu(II) or Cu(I)
Experimental: as §4, §5

[22] = Initial screening by UV-visible absorption spectroscopy: Ba(II); format: binding; conditions: in the absence of Cu(II) or Cu(I)
[23] = Initial screening by UV-visible absorption spectroscopy: La(III); format: binding; conditions: in the absence of Cu(II) or Cu(I)
[24] = Initial screening by UV-visible absorption spectroscopy: Mg(II); format: binding; conditions: in the absence of Cu(II) or Cu(I)
Experimental: as §4, §5

[25] = Initial screening by UV-visible absorption spectroscopy: Sr(II); format: binding; conditions: in the absence of Cu(II) or Cu(I)
[26] = XPS, oxidation state of metal bound to mb: Au(III)
Description: FIG. 11. (A) Gold X-ray photoelectric spectra of mb at gold to mb molar ratios between 0.05 and 10 Au per mb. (B) Corrected signal from Au(0) (◯) and Au(III) (●) at different gold:mb molar ratios.
(§6) XPS was preformed on a model Phoibos-150 hemispherical analyzer (SPECS Scientific Instruments, Sarasota, Fla.) or on a model 5600ci spectrophotometer (Perkin-Elmer Inc., Eden Prairie, Minn.) as previously described (Choi et al., 2006).

[27] = XPS, oxidation state of metal bound to mb: Ni(II)
Description: as §6

[28] = Cu(II) column, cited from earlier work
[29] = first site, two-site fit, 25° C.

In the case of methanobactin [mb], the K1 [1, 29] is reported as 2.6 ± 0.4 × 10^7 M^−1, the K1 ([1]; second site) is reported as 4.7 ± 0.45 × 10^4 M^−1 and the K1 [2, 29] is reported as 1.0 ± 0.5 × 10^5 M^−1. The K1 ([2]; second site) was 1.8 ± 0.2 × 10^5 M^−1, the K1 [3, 29] was 9.9 ± 2.9 × 10^6 M^−1 and the K1 ([3]; second site) was 89.9 ± 0.01 × 10^4 M^−1. The K1 [4] was 6.84 ± 0.4 × 10^5 M^−1, the K1 [5, 29] was 1.3 ± 0.8 × 10^6 M^−1 and the K1 ([5]; second site) was 1.1 ± 0.6 × 10^7 M^−1. The K1 [6] was 1.1 ± 0.2 × 10^6 M^−1, the K1 [7, 29] was 9.7 ± 0.6 × 10^5 M^−1 and the K1 ([7]; second site) was 1.7 ± 0.7 x10^5 M^−1. The K1 [8] was 7.7 ± 1.8 × 10^5 M^−1, the K1 [9, 29] was 4.9 ± 0.9 × 10^5 M^−1 and the K1 ([9]; second site) was 1.17 ± 0.5 × 10^7 M^−1. For the same substance, the K1 [10, 29] was 4.5 ± 1.4 × 10^6 M^−1, the K1 ([10]; second site) was 1.8 ± 0.1 × 10^4 M^−1 and the “binding of Ag(I) by mb” value [11] was “will bind”. The “binding of Au(III) by mb” value [12] was “will bind”, the “binding of Cd(II) by mb” value [13] was “will bind” and the “binding of Co(II) by mb” value [14] was “will bind”. For the same substance, the “binding of Fe(III) by mb” value [15] was “will bind”, the “binding of Hg(II) by mb” value [16] was “will bind” and the “binding of Mn(II) by mb” value [17] was “will bind”. The “binding of Ni(II) by mb” value [18] was “will bind”, the “binding of Pb(II) by mb” value [19] was “will bind” and the “binding of U(VI) by mb” value [20] was “will bind”. The “binding of Zn(II) by mb” value [21] was “will bind”, the “binding of Ba(II) by mb” value [22] was “not” and the “binding of La(III) by mb” value [23] was “not”. For the same substance, the “binding of Mg(II) by mb” value [24] was “not”, the “binding of Sr(II) by mb” value [25] was “not” and the “Au to mb ratio above which Au(III) is detected in reaction mixtures” value [26] was > 2 Au(III) per mb. For the same substance, the “oxidation state of Au(III) after binding by mb” value ([26]; no external reductant) was “reduced to Au(0)”, the “oxidation state of Ni(II) following binding to mb” value [27] was “did not change” and the K1 ([28]; first site) was 3.3e+34 ± 3e+11 M⁻¹. For the same substance, the K1 ([28]; second site) was 2.6 ± 0.5 × 10^8 M^−1.
